# Measurements as given in patent US7423017B2, “Method for treating cartilage disorders” (Genentech, Inc., priority 1997, dated 2008).
# Read-outs that look alike come from different tables or passages of the source. Starred links: 1 amine or outer side, 2 acyl side, 3 side chain; linkers in the order of their positions; H or OH if unused. Positions of bridges follow the written chain, without caps; N, C: chain ends. Residues, ends and D or L forms follow the SMILES beside them. No end group written: not given here. Suc = O=C(CCC(=O)[*:2])[*:1]
# B1: Ala(1-3)-IGF: triple alanine mutant substituting the first three N-terminal amino acids of IGF-1 (protein)
# chain: AAATLCGAELVDALQFVCGDRGFYFNKPTGYGSSSRRAPQTGIVDECCFRSCDLRRLEMYCAPLKPAKSVSGGGSGSGDFDYEKMANANKGAMTENADENALQSDAKGKLDSVATDYGAAIDGFIGDVSGLANGNGATGDFAGSNSQMAQVGDGDNSPLMNNFRQYLPSLPQSVECRPFVFSAGKPYEFSIDCDKINLFRGVFAFLLYVATFMYVFSTFANILRNKES
# Assays:
# IGFBP-3 [1] = target: T1, IGFBP-3 (Homo sapiens, UniProt P17936); test: BIACORE competition assay: IGFBP-3 binding to immobilized IGF-1; settings: for IC50 (mut) / IC50 (wt): IGF-1 inhibition, wt = BP3-01-ox
# T1 construct: made in house
# Procedure: IGF-1 was immobilized on a dextran chip for inhibition assays using a BIACORE™ 2000 surface-plasmon-resonance device (BIAcore, Inc., Piscataway, N.J.) to measure free binding protein. IGF-1 was biotinylated as described above, and injected over a chip to which streptavidin had been coupled (BIAcore, Inc.) to give 400 to 800 RU (response units) of immobilized IGF-1. […] Serial dilutions of peptide were mixed with a constant concentration (40 nM) of IGFBP-3. After incubation for >1 hour at room temperature, an aliquot of 20 μL was injected at a flow rate of 20 μL/min over the IGF-1 chip. Following the injection, a response reading was taken to measure the relative amount of IGFBP-3 bound to the IGF-1.
# [2] = test system: human articular cartilage explants; test: human articular cartilage explants from diseased joints: matrix synthesis (35S-sulfate uptake); format: cell-based
# Procedure: The metacarpophalangeal joint of a six-month old pig was cultured as described above for bovine articular cartilage in Example 8. This explant was cultured in media alone or in media with D12K, D12R, or wild-type IGF-1 (at 10 nM) alone or in the presence of IL-1α at 1 ng/ml, as described above. Human explants were from patients undergoing joint replacement surgery. Articular cartilage was harvested, aliquoted (40-45 mg/tube) and cultured as above. […] Fresh media was added on days 0, 1, 2, and 3. Matrix breakdown was determined by measuring the amount of proteoglycans in the media using the DMMB assay as set forth above. Matrix (proteoglycan) synthesis was determined by measuring ^35S-sulfate uptake as set forth above.
# Human articular cartilage explants were cultured in media or treated with IGF-1 by itself or in combination with either BP3-40 or BP3-15 at 0.1 mg/ml as set forth above. Matrix breakdown was determined by measuring the release of proteoglycans into media as described above. Matrix synthesis was determined by counting the amount of ^35S-sulfate incorporated into the cartilage tissue as described above.
# The same Material and Methods (for human tissue) were used as described above, using articular cartilage explants from human joints removed from patients undergoing joint replacement. These explants were cultured with IGF-1 alone at 40 ng/ml, or IGF-1 with BP1-17, BP3-15, or BP1-16 (0.1 mg/ml), or IGF-1 with buffer (HEPES).
# IGFBP-1 [3] = target: T2, IGFBP-1 (Homo sapiens, UniProt P08833); test: BIACORE kinetics: IGFBP-1 binding to immobilized IGF-1 variants; set-up: made in house; host or cells: CHO cells; settings: Table XVI; Y31C immobilized via disulfide linkage
# T2 sequence (P08833 26-259): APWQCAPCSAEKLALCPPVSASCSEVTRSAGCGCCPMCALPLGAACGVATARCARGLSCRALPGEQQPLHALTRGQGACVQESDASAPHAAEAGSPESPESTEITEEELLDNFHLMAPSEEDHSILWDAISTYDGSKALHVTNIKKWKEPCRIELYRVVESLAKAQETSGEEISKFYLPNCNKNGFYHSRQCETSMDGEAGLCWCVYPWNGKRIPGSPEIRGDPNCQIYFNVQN
# Procedure: The binding affinities of the IGF variants for IGFBP-1 and IGFBP-3 were determined using a BIACORE™-2000 real time kinetic interaction analysis system (Biacore, Inc., Piscataway, N.J.) to measure association (ka) and dissociation (kd) rates. Carboxymethylated dextran biosensor chips (CM5, BIAcore Inc.) were activated with EDC (N-ethyl-N′-(3-dimethylaminopropyl)-carbodiimide hydrochloride) and NHS(N-hydroxysuccinimide) according to the supplier's instructions. For immobilization, IGF mutants in 20 mM sodium acetate, pH 4.8, were injected onto the biosensor chip at a concentration of 50 μg/ml to yield approximately 450-600 RU's (resonance-responce units) of covalently-coupled protein. Unreacted groups were blocked with an injection of 1 M ethanolamine. Kinetic measurements were carried out by injecting two-fold serial dilutions (starting at 1 μM) of either IGFBP-1 or IGFBP-3 in running buffer (PBS, 0.05% TWEEN 20™, 0.1% ovalbumin, 0.1% sodium azide) at 25 °C using a flow rate of 20 μl/min. Association rates (ka) and dissociation rates (kd) were calculated separately using a 1:1 Langmuir™ association model in the BIACORE™ evaluation software v. 3.0. The equilibrium dissociation constant (KD) was calculated as kd/ka.
# For measurements of IGFBP-1 binding to IGF-1, kinetics experiments were conducted using a single-cysteine IGF-1 variant, Y31C, that was immobilized onto the sensor chip surface via a disulfide linkage (BIACORE™ System Manual Supplement, 5a-1, Pharmacia (1991)).
# IGFBP-3 [4] = target: T1, IGFBP-3; test: competitive phage ELISA of IGF-1 mutants, IGFBP-3; format: binding
# Procedure: (§1) An alanine-scanning mutagenesis approach (Cunningham and Wells, Science, 244: 1081-1085 (1989); U.S. Pat. No. 5,834,250) was used to remove that portion of each side chain of IGF-1 beyond the beta carbon. The contribution of these atoms to the free energy of binding of the IGF-1 analog to IGFBP-1 or to IGFBP-3 was then assessed by competitive phage ELISA. In this assay, IGFBP-1 or IGFBP-3 is used to inhibit IGF-phage mutants from binding to an IGFBP-1- or IGFBP-3-coated immunosorbant plate.
# (§2) Immunosorbent plates (Nunc, MAXISORP™, 96 wells) were coated with 100 μl/well of 1 μg/ml IGFBP-1 or IGFBP-3 in PBS buffer pH 7.2 at 4° C. overnight. The plates were then blocked with 0.5% TWEEN 20™/PBS (also used as binding buffer) for 2 hours at room temperature (proteinaceous blocking agents like bovine serum albumin were avoided to prevent potential IGF or IGFBP contamination). E. coli cells (XL1-Blue, Stratagene) freshly transformed with phagemid vector were grown overnight in 5 mL 2YT medium (Sambrook et al., supra) in the presence of M13-VCS helper phage (Stratagene). Phage particles were harvested and resuspended in PBS buffer as described in Lowman, H. B., “Phage Display of Peptide Libraries on Protein Scaffolds,” in Cabilly, S. (ed.), Combinatorial Peptide Library Protocols (Humana Press Inc.: Totowa, N.J., 1998), pp. 249-264. Then phage concentrations were normalized to yield a maximal ELISA signal of 0.2-0.4 for each mutant (Lowman, in Cabilly, S. (ed.), supra). Threefold serial dilutions of soluble competitor were prepared on non-absorbent microtiter plates (Nunc, F, 96 wells) with binding buffer (0.5% TWEEN 20™/PBS) containing phage at the previously determined concentrations. The dilution range of competitor protein extended over six orders of magnitude, starting at 5 μM for IGFBP-1 and 500 nM for IGFBP-3. After blocking, the plates containing immobilized target were washed with 0.05% TWEEN™/PBS buffer and subsequently incubated with 80 μl/well of the premixed phage-competitor solutions for 1 hour at room temperature. After washing, bound phage was detected with 80 μl/well of a solution containing a primary rabbit anti-phage polyclonal antibody and a secondary goat anti-rabbit monoclonal antibody-horseradish peroxidase conjugate in 0.5% TWEEN 20™/PBS. o-Phenylenediamine (Sigma) and tetramethylbenzidine (Kirkegaard and Perry) were used as chromogenic substrates, resulting in product detection at 492 and 450 nm, respectively. IC50 values were determined by fitting the binding data to a generic saturation curve (Lowman, in Cabilly, S. (ed.), supra). At least two individual clones of each IGF-1 mutant were assayed. Numbers in Table XIII represent mean±standard deviation of individually assessed IC50 values.
# IGFBP-1 [5] = target: T2, IGFBP-1; test: competitive phage ELISA of IGF-1 mutants, IGFBP-1; format: binding; set-up: made in house; host or cells: CHO cells
# Procedure: as §1, §2
# IGFBP-1 [6] = test: competitive phage ELISA of IGF-1 mutants, IGFBP-1; format: binding, human; settings: relative IC50 IGFBP-1/relative IC50 IGFBP-3
# Procedure: as §1, §2
# [7] = IC50 mut/IC50 G1S-A70V, listed as Ala(1-3)-IGF-1
# T1 sequence (P17936 28-291): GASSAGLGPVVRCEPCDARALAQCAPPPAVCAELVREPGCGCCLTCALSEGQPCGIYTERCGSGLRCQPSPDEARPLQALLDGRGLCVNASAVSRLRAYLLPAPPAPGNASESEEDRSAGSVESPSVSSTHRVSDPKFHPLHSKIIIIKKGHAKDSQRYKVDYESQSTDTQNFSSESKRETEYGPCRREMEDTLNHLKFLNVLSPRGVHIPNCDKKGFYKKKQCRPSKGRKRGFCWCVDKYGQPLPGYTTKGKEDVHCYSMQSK
molecule,measurement,setting,value
CSCC[C@H](NC(=O)[C@H](CC(N)=O)NC(=O)[C@@H]1CSSC[C@H](NC(=O)[C@@H](NC(=O)[C@H](CCC(=O)O)NC(=O)[C@H](CCC(=O)O)NC(=O)[C@H](CO)NC(=O)[C@H](C)N)C(C)C)C(=O)N[C@@H](Cc2c[nH]c3ccccc23)C(=O)N2CCC[C@H]2C(=O)N[C@@H](C(C)C)C(=O)N[C@@H](C)C(=O)N[C@@H](CCC(=O)O)C(=O)N[C@@H](Cc2c[nH]c3ccccc23)C(=O)N[C@@H](Cc2ccc(O)cc2)C(=O)N[C@@H](CC(C)C)C(=O)N1)C(=O)N[C@@H](Cc1c[nH]c2ccccc12)C(=O)NCC(=O)N[C@@H](CCCNC(=N)N)C(=O)O [4D3.3P] (H-ASEEVCWPVAEWYLCNMWGR-OH; disulfide 6-15; N-terminus and C-terminus assumed),IC50,IGFBP-3 [1],5.6 µM
same,IC50 (mut) / IC50 (wt),IGFBP-3 [1],2.8
CC[C@H](C)[C@@H]1NC(=O)[C@H](Cc2ccc(O)cc2)NC(=O)CNC(=O)[C@H](CCC(N)=O)NC(=O)[C@H](Cc2c[nH]cn2)NC(=O)[C@H](CCCNC(=N)N)NC(=O)[C@H](CC(=O)O)NC(=O)[C@H](Cc2c[nH]c3ccccc23)NC(=O)[C@@H](NC(=O)[C@@H](NC(=O)[C@H](CCC(=O)O)NC(=O)[C@H](Cc2c[nH]c3ccccc23)NC(=O)[C@H](C)N)C(C)C)CSSC[C@@H](C(=O)N[C@H](C(=O)N[C@H](C(=O)N[C@@H](CC(=O)O)C(=O)N[C@@H](CO)C(=O)O)[C@@H](C)O)[C@@H](C)O)NC1=O [BP3-4D3.11DEL] (H-AWEVCWDRHQGYICTTDS-OH; disulfide 5-14; N-terminus and C-terminus assumed),IC50,IGFBP-3 [1],80 µM
CSCC[C@H](NC(=O)[C@H](CC(N)=O)NC(=O)[C@@H]1CSSC[C@H](NC(=O)[C@@H](N)C(C)C)C(=O)N[C@@H](Cc2c[nH]c3ccccc23)C(=O)N2CCC[C@H]2C(=O)N[C@@H](C(C)C)C(=O)N[C@@H](C)C(=O)N[C@@H](CCC(=O)O)C(=O)N[C@@H](Cc2c[nH]c3ccccc23)C(=O)N[C@@H](Cc2ccc(O)cc2)C(=O)N[C@@H](CC(C)C)C(=O)N1)C(=O)N[C@@H](Cc1c[nH]c2ccccc12)C(=O)NCC(=O)O [BP3-16] (H-VCWPVAEWYLCNMWG-OH; disulfide 2-11; N-terminus and C-terminus assumed),IC50,IGFBP-3 [1],30 µM
CC(C)C[C@@H]1NC(=O)[C@H](Cc2ccc(O)cc2)NC(=O)[C@H](Cc2c[nH]c3ccccc23)NC(=O)[C@H](CCC(=O)O)NC(=O)[C@H](C)NC(=O)[C@H](C(C)C)NC(=O)[C@@H]2CCCN2C(=O)[C@H](Cc2c[nH]c3ccccc23)NC(=O)[C@@H](N)CSSC[C@@H](C(=O)N[C@@H](CC(N)=O)C(=O)O)NC1=O [BP3-25] (H-CWPVAEWYLCN-OH; disulfide 1-10; N-terminus and C-terminus assumed),IC50,IGFBP-3 [1],46 µM
same,IC50 (mut) / IC50 (wt),IGFBP-3 [1],23
CC(C)C[C@@H]1NC(=O)[C@H](CC(C)C)NC(=O)[C@H](CC(C)C)NC(=O)[C@H](CC(=O)O)NC(=O)[C@@H]2CCCN2C(=O)[C@H](CCCNC(=N)N)NC(=O)[C@H](C(C)C)NC(=O)[C@H](CC(C)C)NC(=O)[C@H](CCC(N)=O)NC(=O)[C@@H](NC(=O)CCC(=O)O)CSSC[C@@H](C(=O)N[C@@H](CCC(N)=O)C(N)=O)NC1=O [BP3-107] (Suc-CQLVRPDLLLCQ-NH2; disulfide 1-11),IC50,IGFBP-3 [1]; inhibition of 40 nM IGFBP-3 binding to immobilized IGF-1,100 µM
CRAGPLQWLCEK-nh2 (CRAGPLQWLCEK-NH2; disulfide 1-10 (inferred)) [BP1-17],"matrix synthesis, IGF-1 in combination with peptide","[2]; IGF-1 40 ng/ml, peptide 0.1 mg/ml",to some extent
E3A/F49A: double mutant of IGF-1 combining point mutations E3A and F49A,matrix synthesis in diseased human articular cartilage,[2]; 40 ng/ml,stimulated matrix synthesis in diseased human articular cartilage
WPVAEWYLCN [BP3-24],IC50 (mut) / IC50 (wt),IGFBP-3 [1],>500
Y31C: point mutant of IGF-1 with a single unpaired cysteinyl thiol for site-specific immobilization,IGFBP-1 ka,IGFBP-1 [3],3.9 ± 0.4 ×10^4 M^−1
same,IGFBP-1 kd,IGFBP-1 [3],3.8 ± 0.1 ×10^−4 s^−1
same,IGFBP-3 IC50,"IGFBP-3 [4]; phage display, soluble IGFBP-3 competitor",wild-type-like affinities
same,IGFBP-1 IC50,"IGFBP-1 [5]; phage display, soluble IGFBP-1 competitor",wild-type-like affinities
B1,relative specificity,IGFBP-1 [6],7.3
same,IGFBP-3 relative IC50,IGFBP-3 [4]; [7],no change in IGFBP-3 affinity
same,IGFBP-1 Relative IC50,IGFBP-1 [5]; [7],decreased IGFBP-1 affinity similar to E3A
